The values that follow come from patent USRE48711E1, “Apoptosis signal-regulating kinase inhibitors” (Gilead Sciences, Inc., priority 2009, dated 2021).

The structures appear in SMILES notation.

Usually IC50 stands for the concentration needed to halve the response being measured.

The target in one test is ASK1 (Apoptosis Signal-Regulating Kinase 1) (Homo sapiens (Human), UniProt Q99683). The experiment in a line: ASK1 (Apoptosis Signal-Regulating Kinase 1) TR-FRET Kinase Assay (Biochemical IC50).
ASK1 (Apoptosis Signal-Regulating Kinase 1), sequence (Q99683 649-946): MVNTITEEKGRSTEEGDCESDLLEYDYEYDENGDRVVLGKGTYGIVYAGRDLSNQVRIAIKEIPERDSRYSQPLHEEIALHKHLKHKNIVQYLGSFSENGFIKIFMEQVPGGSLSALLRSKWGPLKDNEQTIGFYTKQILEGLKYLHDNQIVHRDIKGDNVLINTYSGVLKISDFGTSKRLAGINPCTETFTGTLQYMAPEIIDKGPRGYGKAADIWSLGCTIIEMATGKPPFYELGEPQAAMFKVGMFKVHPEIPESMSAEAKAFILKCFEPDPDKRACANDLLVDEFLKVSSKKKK
Details: not given
(In TR-FRET formats the signal depends on donor and acceptor labels being close together.)
Compound `Cc1ccc2c(-c3ccc(C4CC4)nc3)cc(C(=O)Nc3cccc(-c4nncn4C4CC4)c3)nc2c1C` [Example 240, N-(3-(4-cyclopropyl-4H-1,2,4-triazol-3-yl)phenyl)-4-(6-cyclopropylpyridin-3-yl)-7,8-dimethylquinoline-2-carboxamide] came in with an IC50 of 0.222 µM.

Still in this test, the particulars now being: TR-FRET, biotin-MBP substrate, 20 min pre-incubation, ATP added as 300 μM solution.
Turning to `O=C(Nc1cccc(-c2nncn2C2CC2)n1)c1cncc(-c2ccc(C3CC3)nc2)c1` [Example 259, 6′-cyclopropyl-N-(6-(4-cyclopropyl-4H-1,2,4-triazol-3-yl)pyridin-2-yl)-3,3′-bipyridine-5-carboxamide], the IC50 stood at 0.008 µM.

The compound `CNS(=O)(=O)c1ccc(-c2ccnc(C(=O)Nc3cccc(-c4nncn4C4CC4)n3)c2)cc1` [Example 111, N-(6-(4-cyclopropyl-4H-1,2,4-triazol-3-yl)pyridin-2-yl)-4-(4-(N-methylsulfamoyl)phenyl)picolinamide] showed an IC50 of 0.009 µM.

For `COC(c1cn(-c2cccc(C(=O)Nc3cccc(-c4nncn4C4CC4)n3)c2)cn1)C(F)(F)F` (stereo not shown) [Example 235, N-(6-(4-cyclopropyl-4H-1,2,4-triazol-3-yl)pyridin-2-yl)-3-(4-(2,2,2-trifluoro-1-methoxyethyl)-1H-imidazol-1-yl)benzamide], it took 0.015 µM to reach half-maximal inhibition (IC50). Compared with the last compound, the IC50 is about 1.7-fold higher.

Compound `O=C(Nc1cccc(-c2nncn2C2CC2)c1)c1cc(-c2cncc(C3CC3)c2)ccn1` [Example 156, 5-cyclopropyl-N-(3-(4-cyclopropyl-4H-1,2,4-triazol-3-yl)phenyl)-3,4′-bipyridine-2′-carboxamide] gave an IC50 of 0.011 µM.

Compound `Cn1cnnc1-c1cccc(NC(=O)c2cncc(-c3ccccc3)c2)c1` [Example 2, N-(3-(4-methyl-4H-1,2,4-triazol-3-yl)phenyl)-5-phenylnicotinamide] gave an IC50 of 5.59 µM.

Consider `CCc1ncc(-c2ccnc(C(=O)Nc3cccc(-c4nncn4C4CC4)c3)c2)cc1Cl` [Example 139, 5-chloro-N-(3-(4-cyclopropyl-4H-1,2,4-triazol-3-yl)phenyl)-6-ethyl-3,4′-bipyridine-2′-carboxamide], for which the IC50 is 0.016 µM. Compared with the last compound, the IC50 is about 350-fold lower.

As for `CCc1cn(-c2ccnc(C(=O)Nc3cccc(-c4nncn4C4CC4)c3)c2)cn1` [Example 158, N-(3-(4-cyclopropyl-4H-1,2,4-triazol-3-yl)phenyl)-4-(4-ethyl-1H-imidazol-1-yl)picolinamide], half-maximal inhibition (IC50) required 0.005 µM.

In turn, `O=C(Nc1cccc(-c2nncn2C2CC2)c1)c1cc(-c2ccc(NC3CC3)nc2)ccn1` [Example 120, N-(3-(4-cyclopropyl-4H-1,2,4-triazol-3-yl)phenyl)-6-(cyclopropylamino)-3,4′-bipyridine-2′-carboxamide] had an IC50 of 0.006 µM.

As for `Cc1noc(-c2ccnc(C(=O)Nc3cccc(-c4nncn4C4CC4)c3)c2)n1` [Example 253, N-(3-(4-cyclopropyl-4H-1,2,4-triazol-3-yl)phenyl)-4-(3-methyl-1,2,4-oxadiazol-5-yl)picolinamide], half-maximal inhibition (IC50) required 3.49 µM.

`Nc1ccc(-c2ccnc(C(=O)Nc3cccc(-c4nncn4C4CC4)c3)c2)cn1` [Example 22, 6-amino-N-(3-(4-cyclopropyl-4H-1,2,4-triazol-3-yl)phenyl)-3,4′-bipyridine-2′-carboxamide]: the IC50 was found to be 0.009 µM.

Regarding `Cc1cnc(C(=O)Nc2cccc(-c3nncn3C3CC3)c2)cc1-c1ccc(C2CC2)nc1` [Example 250, 6-cyclopropyl-N-(3-(4-cyclopropyl-4H-1,2,4-triazol-3-yl)phenyl)-5′-methyl-3,4′-bipyridine-2′-carboxamide], the midpoint of inhibition, the IC50, lay at 0.008 µM.

`Cc1cc(-c2ccc(C3CC3)nc2)cc(C(=O)Nc2cccc(-c3nncn3C3CC3)c2)n1` [Example 249, 6-cyclopropyl-N-(3-(4-cyclopropyl-4H-1,2,4-triazol-3-yl)phenyl)-6′-methyl-3,4′-bipyridine-2′-carboxamide] had an IC50 of 0.071 µM.

`Cn1cc(-c2ccnc(C(=O)Nc3cccc(-c4nncn4C4CC4)c3)c2)cn1` [Example 68, N-(3-(4-cyclopropyl-4H-1,2,4-triazol-3-yl)phenyl)-4-(1-methyl-1H-pyrazol-4-yl)picolinamide] displayed an IC50 of 0.039 µM. Compared with the last compound, the IC50 is about 1.8-fold lower.

For the compound `CC(C)c1cn(-c2ccnc(C(=O)Nc3cccc(-c4nncn4C4CC4)c3)c2)cn1` [Example 163, N-(3-(4-cyclopropyl-4H-1,2,4-triazol-3-yl)phenyl)-4-(4-isopropyl-1H-imidazol-1-yl)picolinamide], the IC50 turned out to be 0.004 µM. Compared with the last compound, the IC50 is about 9.8-fold lower.

`Cc1c(-c2ccnc(C(=O)Nc3cccc(-c4nncn4C4CC4)c3)c2)cnn1C` [Example 90, N-(3-(4-cyclopropyl-4H-1,2,4-triazol-3-yl)phenyl)-4-(1,5-dimethyl-1H-pyrazol-4-yl)picolinamide]: the IC50 was determined as 0.038 µM. This IC50 lies about 9.5-fold higher than the previous one.

Take `COc1ccc2ncc(-c3ccnc(C(=O)Nc4cccc(-c5nncn5C5CC5)c4)c3)cc2c1` [Example 251, N-(3-(4-cyclopropyl-4H-1,2,4-triazol-3-yl)phenyl)-4-(6-methoxyquinolin-3-yl)picolinamide]: half-maximal inhibition (IC50) required 0.007 µM. This IC50 is about 5.4-fold lower than that of the compound before.

Take `O=C(Nc1ccnc(-c2nncn2C2CC2)c1)c1cc(-c2cnc3ccccc3c2)ccn1` [Example 153, N-(2-(4-cyclopropyl-4H-1,2,4-triazol-3-yl)pyridin-4-yl)-4-(quinolin-3-yl)picolinamide]: half-maximal inhibition (IC50) required 0.409 µM.

`O=C(Nc1cccc(-c2nncn2C2CC2c2ccccc2)c1)c1cc(-c2ccc(C3CC3)nc2)ccn1` (stereo not shown) [Example 267, 6-cyclopropyl-N-(3-(4-(2-phenylcyclopropyl)-4H-1,2,4-triazol-3-yl)phenyl)-3,4′-bipyridine-2′-carboxamide] displayed an IC50 of 0.425 µM. The IC50 values of the last two compounds are within 1.5-fold of each other.

The compound `O=C(Nc1cccc(-c2nncn2C2CC2)c1)c1cc(-n2cnc3cnccc32)ccn1` [Example 83, N-(3-(4-cyclopropyl-4H-1,2,4-triazol-3-yl)phenyl)-4-(1H-imidazo[4,5-c]pyridin-1-yl)picolinamide] showed an IC50 of 0.053 µM.

With `Nc1ncccc1-c1ccnc(C(=O)Nc2cccc(-c3nncn3C3CC3)c2)c1` [Example 66, 2-amino-N-(3-(4-cyclopropyl-4H-1,2,4-triazol-3-yl)phenyl)-3,4′-bipyridine-2′-carboxamide], the IC50 was found to be 0.086 µM.

`O=C(Nc1ccnc(-c2nncn2C2CC2)c1)c1cc(-c2ccc(C3CC3)nc2)ccn1` [Example 152, 6-cyclopropyl-N-(2-(4-cyclopropyl-4H-1,2,4-triazol-3-yl)pyridin-4-yl)-3,4′-bipyridine-2′-carboxamide] showed an IC50 of 0.286 µM.

In turn, `O=C(Nc1cccc(-c2nncn2C2CCC2)c1)c1cc(-c2cccnc2)ccn1` [Example 39, N-(3-(4-cyclobutyl-4H-1,2,4-triazol-3-yl)phenyl)-3,4′-bipyridine-2′-carboxamide] showed an IC50 of 0.063 µM. This IC50 is about 4.5-fold lower than that of the compound before.

`O=C(Nc1cccc(-c2nncn2C2CC2)c1)c1cc(-n2cnc3c2CCCC3)ccn1` [Example 86, N-(3-(4-cyclopropyl-4H-1,2,4-triazol-3-yl)phenyl)-4-(4,5,6,7-tetrahydro-1H-benzo[d]imidazol-1-yl)picolinamide] registered an IC50 of 0.009 µM.

In turn, `Cc1ncn(-c2cccc(C(=O)Nc3cccc(-c4nncn4C4CC4)n3)c2)c1C` [Example 211, N-(6-(4-cyclopropyl-4H-1,2,4-triazol-3-yl)pyridin-2-yl)-3-(4,5-dimethyl-1H-imidazol-1-yl)benzamide] registered an IC50 of 0.009 µM.

In turn, `O=C(Nc1cc(F)cc(-c2nncn2C2CC2)c1)c1cc(-c2ccc(C3CC3)nc2)ccn1` [Example 168, 6-cyclopropyl-N-(3-(4-cyclopropyl-4H-1,2,4-triazol-3-yl)-5-fluorophenyl)-3,4′-bipyridine-2′-carboxamide] displayed an IC50 of 0.143 µM.

`O=C(Nc1cccc(-c2nncn2C2CC2)n1)c1cccc(-n2cnc(C(O)C(F)(F)F)c2)c1` (stereo not shown) [Example 208, N-(6-(4-cyclopropyl-4H-1,2,4-triazol-3-yl)pyridin-2-yl)-3-(4-(2,2,2-trifluoro-1-hydroxyethyl)-1H-imidazol-1-yl)benzamide] had an IC50 of 0.005 µM.

`O=C(Nc1cccc(-c2nncn2C2CC2)c1)c1cc(-c2ccc(CC(F)(F)F)nc2)ccn1` [Example 171, N-(3-(4-cyclopropyl-4H-1,2,4-triazol-3-yl)phenyl)-6-(2,2,2-trifluoroethyl)-3,4′-bipyridine-2′-carboxamide] gave an IC50 of 0.007 µM.

`CC(C)n1cnnc1-c1cccc(NC(=O)c2cc(-c3ccc(C4CC4)nc3)ccn2)n1` [Example 176, 6-cyclopropyl-N-(6-(4-isopropyl-4H-1,2,4-triazol-3-yl)pyridin-2-yl)-3,4′-bipyridine-2′-carboxamide]: the IC50 was determined as 0.013 µM.

Compound `O=C(Nc1cccc(-c2nncn2C2CC2)c1)c1cc(-c2cnc3ccccc3c2)ccn1` [Example 84, N-(3-(4-cyclopropyl-4H-1,2,4-triazol-3-yl)phenyl)-4-(quinolin-3-yl)picolinamide] came in with an IC50 of 0.013 µM.

For `O=C(Nc1cccc(-c2nncn2C2CC2)c1)c1cc(-c2cnc(C3CC3)c(Cl)c2)ccn1` [Example 135, 5-chloro-6-cyclopropyl-N-(3-(4-cyclopropyl-4H-1,2,4-triazol-3-yl)phenyl)-3,4′-bipyridine-2′-carboxamide], half-maximal inhibition (IC50) required 0.131 µM. Against the preceding compound, the IC50 is about 10-fold higher.

Regarding `C[C@H](n1cnnc1-c1cccc(NC(=O)c2cc(-c3cccnc3)ccn2)c1)C(F)(F)F` [Example 63, (S)-N-(3-(4-(1,1,1-trifluoropropan-2-yl)-4H-1,2,4-triazol-3-yl)phenyl)-3,4′-bipyridine-2′-carboxamide], the IC50 was determined as 0.021 µM.

Consider `O=C(Nc1cccc(-c2cncn2C2CC2)c1)c1cc(-n2cnc3ccccc32)ccn1` [Example 88, 4-(1H-benzo[d]imidazol-1-yl)-N-(3-(1-cyclopropyl-1H-imidazol-5-yl)phenyl)picolinamide], for which the half-inhibitory concentration (IC50) stood at 0.035 µM.

For the compound `C[C@@H](O)[C@H](C)n1cnnc1-c1cccc(NC(=O)c2cc(-c3ccc(C4CC4)nc3)ccn2)n1` [Example 247, 6-cyclopropyl-N-(6-(4-((2S,3R)-3-hydroxybutan-2-yl)-4H-1,2,4-triazol-3-yl)pyridin-2-yl)-3,4′-bipyridine-2′-carboxamide], inhibition was half-maximal at 0.01 µM (IC50). Against the preceding compound, the IC50 is about 3.5-fold lower.
